Source: BigSolDB 2.1

O=C(O)CCP(=O)([O-])c1ccccc1.[Na+]
solubility (mole fraction)
Conditions	293.15 K	298.15 K	303.15 K	308.15 K	313.15 K	318.15 K	323.15 K	328.15 K	333.15 K	343.15 K
in acetic acid	0.0169	0.0205	0.0225	0.0264	0.0283	0.0312	0.0357	0.0404	0.0471	0.062
in acetone	7e-05	0.00011	0.00016	0.00024	0.00035	0.00051	0.00075	–	–	–
in ethanol	0.00065	0.00076	0.00095	0.00106	0.00122	0.00166	0.00199	0.00223	0.00273	0.00413
in ethyl acetate	0.00039	0.00051	0.000685	0.00096	0.00117	0.00165	0.00204	0.00285	0.00384	0.00602
in methanol	0.00612	0.00671	0.00719	0.00779	0.00831	0.009	0.00993	–	–	–
in water	0.0196	0.0201	0.0214	0.0222	0.0232	0.0248	0.0263	0.0277	0.0295	0.0316

O=C([O-])CCP(=O)([O-])c1ccccc1.[Na+].[Na+]
solubility (mole fraction)
Conditions	293.15 K	298.15 K	303.15 K	308.15 K	313.15 K	318.15 K	323.15 K	328.15 K	333.15 K	343.15 K
in acetic acid	0.000543	0.000554	0.000569	0.000581	0.000603	0.000626	0.000644	0.000663	0.000703	0.000742
in acetone	3.66e-05	3.89e-05	4.13e-05	4.39e-05	4.62e-05	4.83e-05	5.24e-05	–	–	–
in ethanol	7.03e-05	9.7e-05	0.000138	0.000197	0.000264	0.000352	0.000505	0.000728	0.000926	0.00164
in methanol	2.2e-05	2.26e-05	2.28e-05	2.3e-05	2.34e-05	2.4e-05	2.44e-05	–	–	–
in water	0.000904	0.000906	0.000908	0.000909	0.000911	0.000912	0.000913	0.000915	0.000916	0.000918
